What all share (assay type): cell-based
Test [1] relates to IL6. Nature of the test: LPS stimulated IL6 inhibition assay in PBMC. The note with it: Homo sapiens, PBMC, 24 h, human PBMCs, LPS stimulation, compound overnight, IL6 by MSD after 24 hrs; for Dmax: read-out: LPS Stim IL6 inhibition Dmax; for IC50: read-out: LPS stim IL6 inhibition IC50. The procedure, abridged:
(§1)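 Seed human PBMC, 2.0×10^6 cells/mL → compound overnight → stimulant (IL-1β, LPS or R848) at per-donor EC50 → 24 hrs → media to MSD for IL6/IL8.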

Test [2] deals with IL6. Description: R848 stimulated IL6 inhibition assay in PBMC. The conditions noted are these: PBMC, human PBMCs, R848 stimulation, compound overnight, IL6 by MSD after 24 hrs; for Dmax: Homo sapiens, 24 h, read-out: R848 stim IL6 inhibition Dmax; for IC50: read-out: R848 stim IL6 inhibition IC50. The procedure, abridged: as §1
The target in another test is T1, IRAK-4 (Homo sapiens, UniProt Q9NWZ3).
T1 sequence (Q9NWZ3 1-460): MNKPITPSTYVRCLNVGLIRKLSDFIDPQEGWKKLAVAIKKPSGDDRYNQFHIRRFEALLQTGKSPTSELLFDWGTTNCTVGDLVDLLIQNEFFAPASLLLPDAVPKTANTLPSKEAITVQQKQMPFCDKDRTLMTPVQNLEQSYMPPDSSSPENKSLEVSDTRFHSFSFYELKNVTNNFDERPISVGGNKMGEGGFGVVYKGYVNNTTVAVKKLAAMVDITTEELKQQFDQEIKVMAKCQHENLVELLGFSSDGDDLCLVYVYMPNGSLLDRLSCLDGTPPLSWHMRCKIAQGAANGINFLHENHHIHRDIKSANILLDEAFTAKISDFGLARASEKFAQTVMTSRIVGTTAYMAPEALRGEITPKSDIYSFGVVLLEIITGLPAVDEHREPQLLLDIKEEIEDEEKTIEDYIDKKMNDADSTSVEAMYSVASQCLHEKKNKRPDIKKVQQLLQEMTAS
Description: IRAK-4 ELISA, PBMC degradation. Set-up: endogenous in cells; host or cells: PBMC. The conditions noted are these: treated overnight. The procedure, abridged:
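Overnight compound treatment, started on the day of plating, of OCI-Ly10 (1×10^6/ml) and PBMC (2×10^6/ml) cultures. Lysates are collected and IRAK-4 content is read by sandwich ELISA.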
For orientation: In an ELISA, binding on a coated surface is turned into a signal by an enzyme label.

The source of these data is patent US20230099344A1, “COMPOUNDS AND METHODS FOR THE TARGETED DEGRADATION OF IRAK-4” (Arvinas Operations, Inc., priority 2021, published 2023).

What is called IC50 is the concentration that gives 50% inhibition. By DC50 is commonly meant the midpoint of the concentration-degradation curve. Low values mean a more potent degrader, high ones a less potent degrader.

Molecules are shown by their SMILES. Some results are limits rather than exact numbers.

Regarding `CC(C)Oc1cc2c(cc1NC(=O)c1cnn3cccnc13)CN(C1CCN(C(C)(C)C3CN(c4ccc(F)c(C(=O)NC5CCC(=O)NC5=O)c4)C3)CC1)C2=O` (centres unmarked) [Example 311], in the test with IL6 [1], the Dmax was in the range of 70 to 80% and the IC50 was no less than 100 nM. In the test on IL6 [2], the Dmax is no less than 90% and the IC50 was 10 to 50 nM. Also, at IRAK-4, the DC50 fell in the range of 5 to 10 nM, the Dmax lay in the range of 80 to 90% and the “PBMC DC90” value is “D (D represents a DC90 value ≥50 nM)”.

For the molecule `CC(C)Oc1cc2c(cc1NC(=O)c1cnn3cccnc13)CN(C1CCN(C(C)(C)C3CN(c4ccc(C(=O)NC5CCC(=O)NC5=O)c(F)c4)C3)CC1)C2=O` (centres unmarked) [Example 312], in the test with IL6 [1], the Dmax was no less than 90% and the IC50 fell in the range of 10 to 50 nM. Besides, in the test on IL6 [2], the Dmax was no less than 90% and the 50% inhibitory concentration (IC50) is less than 10 nM. For the same molecule, on IRAK-4, the DC50 was in the range of 1 to 5 nM, the Dmax is no less than 90% and the “PBMC DC90” value is “A (A represents a DC90 value <10.0 nM)”.

Take `Cn1c(=O)n(C2CCC(=O)NC2=O)c2cccc(N3CC(N(C)[C@H]4CC[C@H](n5cc6cc(NC(=O)c7cnn8cccnc78)c(OCC7CC7)cc6n5)CC4)C3)c21` (some centres unmarked) [Example 346]: in the test with IL6 [1], the Dmax was 80 to 90% and the IC50 is less than 10 nM. Moreover, in the test with IL6 [2], the Dmax was no less than 90% and the IC50 is 10 to 50 nM. Moreover, at IRAK-4, the DC50 lay within 1 to 5 nM; the Dmax was 80 to 90%; the “PBMC DC90” value was “B (B represents a DC90 value ≥10.0 nM and <25.0 nM)”.

For `O=C1CCC(N2C(=O)c3ccc(N4CCC5(CC4)CN([C@H]4CC[C@H](n6cc7cc(NC(=O)c8cnn9cccnc89)c(OCC8CC8)cc7n6)CC4)C5)cc3C2=O)C(=O)N1` (some centres unmarked) [Example 353], in the test on IL6 [1], the Dmax lay within 70 to 80% and the IC50 was 10 to 50 nM. In the test on IL6 [2], the Dmax was no less than 90% and the IC50 fell in the range of 10 to 50 nM. For the same molecule, at IRAK-4, the DC50 fell in the range of 1 to 5 nM; the Dmax was 80 to 90%; the “PBMC DC90” value was “B (B represents a DC90 value ≥10.0 nM and <25.0 nM)”.

Take `CN(CC1CCN(c2ccc3c(c2)C(=O)N(C2CCC(=O)NC2=O)C3=O)CC1)[C@H]1CC[C@H](n2cc3cc(NC(=O)c4cnn5cccnc45)c(OCC(F)F)cc3n2)CC1` (some centres unmarked) [Example 357]: in the test on IL6 [1], the Dmax was no less than 90% and the half-maximal inhibitory concentration (IC50) is less than 10 nM. Further, in the test with IL6 [2], the Dmax was no less than 90% and the IC50 is less than 10 nM. Besides, on IRAK-4, the DC50 is less than 1 nM, the Dmax was 70 to 80% and the “PBMC DC90” value is reported as “A (A represents a DC90 value <10.0 nM)”.

On to `CN(C1CCN(c2ccc3c(c2)C(=O)N(C2CCC(=O)NC2=O)C3=O)CC1)[C@H]1CC[C@H](n2cc3cc(NC(=O)c4cnn5cccnc45)c(OCC(F)F)cc3n2)CC1` (some centres unmarked) [Example 358], for which, in the test on IL6 [1], the Dmax lay within 70 to 80% and the IC50 was less than 10 nM. In the test with IL6 [2], the Dmax is no less than 90% and the IC50 is less than 10 nM. Further, on IRAK-4, the DC50 was less than 1 nM, the Dmax is less than 70% and the “PBMC DC90” value was “A (A represents a DC90 value <10.0 nM)”.

On to `CN(CCN1CCN(c2ccc3c(c2)C(=O)N(C2CCC(=O)NC2=O)C3=O)CC1)[C@H]1CC[C@H](n2cc3cc(NC(=O)c4cnn5cccnc45)c(OCC4CC4)cc3n2)CC1` (some centres unmarked) [Example 359], for which, in the test with IL6 [1], the Dmax fell in the range of 80 to 90% and the concentration for half-maximal inhibition (IC50) is less than 10 nM. In the test on IL6 [2], the Dmax is no less than 90% and the half-maximal inhibitory concentration (IC50) was less than 10 nM. Besides, on IRAK-4, the DC50 is less than 1 nM, the Dmax is 80 to 90% and the “PBMC DC90” value is “A (A represents a DC90 value <10.0 nM)”.

For the molecule `O=C1CCC(N2C(=O)c3ccc(N4CC5(C4)CN([C@H]4CC[C@H](n6cc7cc(NC(=O)c8cnn9cccnc89)c(OCC8CC8)cc7n6)CC4)C5)cc3C2=O)C(=O)N1` (some centres unmarked) [Example 360], in the test with IL6 [1], the Dmax lay in the range of 80 to 90% and the IC50 is less than 10 nM. Further, in the test with IL6 [2], the Dmax was no less than 90% and the IC50 is less than 10 nM. On IRAK-4, the DC50 lay in the range of 1 to 5 nM; the Dmax was no less than 90%; the “PBMC DC90” value is “B (B represents a DC90 value ≥10.0 nM and <25.0 nM)”.

On to `CN(C1CN(c2ccc3c(c2F)CN(C2CCC(=O)NC2=O)C3=O)C1)[C@H]1CC[C@H](n2cc3cc(NC(=O)c4cnn5cccnc45)c(OCC4CC4)cc3n2)CC1` (some centres unmarked) [Example 361], for which, in the test with IL6 [1], the Dmax was in the range of 80 to 90% and the IC50 is less than 10 nM. In the test with IL6 [2], the Dmax was no less than 90% and the IC50 was less than 10 nM. Besides, at IRAK-4, the DC50 was less than 1 nM, the Dmax is no less than 90% and the “PBMC DC90” value is “A (A represents a DC90 value <10.0 nM)”.

On to `CN(C1CN(c2ccc3c(c2F)CN(C2CCC(=O)NC2=O)C3=O)C1)[C@H]1CC[C@H](n2cc3cc(NC(=O)c4cnn5cccnc45)c(OCC(F)F)cc3n2)CC1` (some centres unmarked) [Example 362], for which, in the test on IL6 [1], the Dmax is 70 to 80% and the IC50 was 10 to 50 nM. In the test on IL6 [2], the Dmax is no less than 90% and the IC50 was less than 10 nM. Besides, on IRAK-4, the DC50 was less than 1 nM, the Dmax is no less than 90% and the “PBMC DC90” value is listed as “A (A represents a DC90 value <10.0 nM)”.

On to `CN(C1CN(c2ccc3c(c2)CN(C2CCC(=O)NC2=O)C3=O)C1)[C@H]1CC[C@H](n2cc3cc(NC(=O)c4cnn5cccnc45)c(OCC(F)F)cc3n2)CC1` (some centres unmarked) [Example 363], for which, in the test on IL6 [1], the Dmax is 70 to 80% and the IC50 lay in the range of 10 to 50 nM. In the test with IL6 [2], the Dmax was no less than 90% and the IC50 fell in the range of 10 to 50 nM. In addition, on IRAK-4, the half-maximal degradation concentration (DC50) is less than 1 nM, the Dmax is no less than 90% and the “PBMC DC90” value is recorded as “A (A represents a DC90 value <10.0 nM)”.

In the case of `CC(C)Oc1cc2c(cc1NC(=O)c1cnn3cccnc13)CN([C@H]1CC[C@H](N(C)C3CN(c4ccc5c(c4F)CN(C4CCC(=O)NC4=O)C5=O)C3)CC1)C2=O` (some centres unmarked) [Example 364], in the test with IL6 [1], the Dmax is less than 70% and the IC50 fell in the range of 50 to 100 nM. Moreover, in the test with IL6 [2], the Dmax is no less than 90% and the IC50 is less than 10 nM. On IRAK-4, the DC50 fell in the range of 1 to 5 nM, the Dmax was no less than 90% and the “PBMC DC90” value is recorded as “A (A represents a DC90 value <10.0 nM)”.

Take `CC(C)Oc1cc2c(cc1NC(=O)c1cnn3cccnc13)CN([C@H]1CC[C@H](N(C)CC3(F)CN(c4ccc5c(c4)C(=O)N(C4CCC(=O)NC4=O)C5=O)C3)CC1)C2=O` (some centres unmarked) [Example 365]: in the test on IL6 [1], the Dmax is less than 70% and the half-inhibitory concentration (IC50) was less than 10 nM. Moreover, in the test with IL6 [2], the Dmax was no less than 90% and the IC50 was in the range of 10 to 50 nM. On IRAK-4, the DC50 is 1 to 5 nM, the Dmax is no less than 90% and the “PBMC DC90” value was “A (A represents a DC90 value <10.0 nM)”.

In the case of `CC(C)Oc1cc2c(cc1NC(=O)c1cnn3cccnc13)CN([C@H]1CC[C@H](N3CC4(CN(c5ccc6c(c5)C(=O)N(C5CCC(=O)NC5=O)C6=O)C4)C3)CC1)C2=O` (some centres unmarked) [Example 366], in the test on IL6 [1], the Dmax fell in the range of 80 to 90% and the IC50 was less than 10 nM. Further, in the test on IL6 [2], the Dmax was no less than 90% and the 50% inhibitory concentration (IC50) was less than 10 nM. At IRAK-4, the DC50 is 1 to 5 nM, the Dmax was no less than 90% and the “PBMC DC90” value is “A (A represents a DC90 value <10.0 nM)”.

Take `O=C1CCC(N2Cc3c(cccc3N3CC4(CCCN(C5CCC(n6cc7cc(NC(=O)c8cnn9cccnc89)c(OCC8CC8)cc7n6)CC5)C4)C3)C2=O)C(=O)N1` (centres unmarked) [Example 367]: in the test on IL6 [1], the Dmax was in the range of 80 to 90% and the IC50 lay within 10 to 50 nM. Further, in the test with IL6 [2], the Dmax is no less than 90% and the IC50 is 10 to 50 nM. On IRAK-4, the 50% degradation concentration (DC50) is no less than 10 nM, the Dmax was in the range of 80 to 90% and the “PBMC DC90” value is on record as “D (D represents a DC90 value ≥50 nM)”.

Turning to `CN(C1CN(c2ccc(C(=O)NC3CCC(=O)NC3=O)c(F)c2)C1)[C@H]1CC[C@H](n2cc3cc(NC(=O)c4cnn5cccnc45)c(OCC4CC4)cc3n2)CC1` (some centres unmarked) [Example 368], in the test with IL6 [1], the Dmax lay within 70 to 80% and the IC50 was 10 to 50 nM. Also, in the test with IL6 [2], the Dmax is no less than 90% and the IC50 was 10 to 50 nM. Moreover, on IRAK-4, the 50% degradation concentration (DC50) lay in the range of 1 to 5 nM, the Dmax is no less than 90% and the “PBMC DC90” value was “A (A represents a DC90 value <10.0 nM)”.

For `CCN(C1CN(c2ccc(C(=O)NC3CCC(=O)NC3=O)c(F)c2)C1)[C@H]1CC[C@H](n2cc3cc(NC(=O)c4cnn5cccnc45)c(OCC4CC4)cc3n2)CC1` (some centres unmarked) [Example 369], in the test on IL6 [1], the Dmax is less than 70% and the IC50 is 10 to 50 nM. Besides, in the test on IL6 [2], the Dmax was no less than 90% and the IC50 lay in the range of 10 to 50 nM. On IRAK-4, the DC50 was 1 to 5 nM, the Dmax is no less than 90% and the “PBMC DC90” value is recorded as “A (A represents a DC90 value <10.0 nM)”.
